PubChem BioAssay (NCI)
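Interpolation was linear, between the two tested concentrations surrounding the appropriate level; five concentrations were tested over 48 hours in 96-well plates. Here, GI50 denotes the concentration required for 50% inhibition of growth. TGI denotes the concentration required for complete inhibition of growth.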

Each compound was assayed on SW-620 colon (assay: NCI anticancer screen, dose series, 48 h).
Work on `NCCCOc1cc2ccccc2cc1C(=O)NCCCOc1cc2ccccc2cc1C(=O)Nc1ccc(Cl)cc1O` yielded a GI50 of 0.189 µM and a TGI of 0.381 µM.
`COc1cc(/C=C/C(=O)C(C(=O)/C=C/c2ccc(OC(=O)CCNC34CC5CC(CC(C5)C3)C4)c(OC)c2)C(=O)CCNC23CC4CC(CC(C4)C2)C3)ccc1OC(=O)CCNC12CC3CC(CC(C3)C1)C2` (stereo not drawn) showed a GI50 of 2.42 µM and a TGI of 6.48 µM.
For `CCOC(=O)C1=C(N)Oc2c(sc3c(C)cccc23)C1c1ccc(F)cc1` (stereo not drawn), the GI50 was 0.453 µM and the TGI was 15.9 µM.
`O=C1/C(=C/N2N=C(c3ccc4ccccc4c3)CC2c2ccccc2O)SC(=S)N1c1cccnc1` (stereo not drawn) showed a GI50 of 0.365 µM and a TGI of over 100 µM.
Compound `NC(N)=N/N=C(\N=Nc1ccccc1)c1ccc(Cl)cc1` has a GI50 of 1.41 µM and a TGI of 3.54 µM.
`c1ccc2c(c1)c1ccccc1c1ccccc21` showed a GI50 of over 100 µM and a TGI of over 100 µM.
Work on `Cc1c2c(C(N)=O)nccc2c(C)c2c1c1ccccc1n2Cc1ccccc1` yielded a TGI of 50 µM.
Compound `NC(=O)CNc1ccc([As]=[As]c2ccc(NCC(N)=O)cc2)cc1` (stereo not drawn) has a GI50 of 2.54 µM and a TGI of 15.4 µM.

The compounds below were run on T-47D breast (assay: NCI anticancer screen, dose series, 48 h).
`O=C(Nc1ccc(Cl)cc1)Nc1nccs1` gave a GI50 of 2.38 µM and a TGI of over 100 µM.
`CS(=O)(=O)CS(=O)(=O)OCCCl` gave a TGI of 1530 µM.
`COc1ccc(-c2ccc(NNC(=O)c3ccc(F)cc3)nn2)cc1OC` was tested, and the GI50 was 28.1 µM and the TGI was over 100 µM.
Work on `Cc1noc2c1-c1ccccc1C(c1ccc(Cl)cc1)=N[C@H]2CC(N)=O` yielded a GI50 of 3.48 µM and a TGI of over 100 µM.
For `O=C(N/N=C/c1ccc(O)cc1O)c1cccnc1`, the GI50 was 3.45 µM and the TGI was 86 µM.
Work on `O=C(NNc1cnccn1)c1nc2cc(F)ccc2n2cccc12` yielded a GI50 of 0.385 µM and a TGI of over 100 µM.
With `NCCCOc1cc(Cl)ccc1NC(=O)c1cc2ccccc2cc1OCCCN` the GI50 was 1.51 µM and the TGI was 3.2 µM.
Compound `C=C1C(=O)OC2C1CC(OC(C)=O)/C(C)=C/CCC1(C)OC21` (stereo not drawn) has a TGI of over 100 µM.
`NCCCOc1cc2ccccc2cc1C(=O)NCCCOc1cc2ccccc2cc1C(=O)Nc1ccc(Cl)cc1O` gave a GI50 of 1.88 µM and a TGI of 4.24 µM.
For `COc1cc(/C=C/C(=O)C(C(=O)/C=C/c2ccc(OC(=O)CCNC34CC5CC(CC(C5)C3)C4)c(OC)c2)C(=O)CCNC23CC4CC(CC(C4)C2)C3)ccc1OC(=O)CCNC12CC3CC(CC(C3)C1)C2` (stereo not drawn), the GI50 was 3.69 µM and the TGI was 28.9 µM.
`CCOC(=O)C1=C(N)Oc2c(sc3c(C)cccc23)C1c1ccc(F)cc1` (stereo not drawn) was tested, and the GI50 was 2.61 µM and the TGI was 26.4 µM.
`O=C1/C(=C/N2N=C(c3ccc4ccccc4c3)CC2c2ccccc2O)SC(=S)N1c1cccnc1` (stereo not drawn) gave a GI50 of 3.8 µM and a TGI of over 100 µM.
With `NC(N)=N/N=C(\N=Nc1ccccc1)c1ccc(Cl)cc1` the GI50 was 2.31 µM and the TGI was 8.17 µM.
Work on `c1ccc2c(c1)c1ccccc1c1ccccc21` yielded a GI50 of over 100 µM and a TGI of over 100 µM.
`Cc1c2c(C(N)=O)nccc2c(C)c2c1c1ccccc1n2Cc1ccccc1` gave a TGI of 79.5 µM.
`NC(=O)CNc1ccc([As]=[As]c2ccc(NCC(N)=O)cc2)cc1` (stereo not drawn) gave a GI50 of 1.44 µM and a TGI of 17.4 µM.

The compounds below were run on UACC-62 melanoma (assay: NCI anticancer screen, dose series, 48 h).
Compound `O=C(Nc1ccc(Cl)cc1)Nc1nccs1` has a GI50 of 0.756 µM and a TGI of 57.9 µM.
`CS(=O)(=O)CS(=O)(=O)OCCCl` showed a TGI of 268 µM.
`COc1ccc(-c2ccc(NNC(=O)c3ccc(F)cc3)nn2)cc1OC` showed a GI50 of over 100 µM and a TGI of over 100 µM.
Compound `Cc1noc2c1-c1ccccc1C(c1ccc(Cl)cc1)=N[C@H]2CC(N)=O` has a GI50 of 0.462 µM and a TGI of over 58.9 µM.
With `O=C(N/N=C/c1ccc(O)cc1O)c1cccnc1` the GI50 was 2.38 µM and the TGI was 17.5 µM.
`O=C(NNc1cnccn1)c1nc2cc(F)ccc2n2cccc12` was tested, and the GI50 was 0.7 µM and the TGI was over 100 µM.
`NCCCOc1cc(Cl)ccc1NC(=O)c1cc2ccccc2cc1OCCCN` gave a GI50 of 1.78 µM and a TGI of 3.3 µM.
For `C=C1C(=O)OC2C1CC(OC(C)=O)/C(C)=C/CCC1(C)OC21` (stereo not drawn), the TGI was over 100 µM.
With `NCCCOc1cc2ccccc2cc1C(=O)NCCCOc1cc2ccccc2cc1C(=O)Nc1ccc(Cl)cc1O` the GI50 was 1.58 µM and the TGI was 3.53 µM.
`COc1cc(/C=C/C(=O)C(C(=O)/C=C/c2ccc(OC(=O)CCNC34CC5CC(CC(C5)C3)C4)c(OC)c2)C(=O)CCNC23CC4CC(CC(C4)C2)C3)ccc1OC(=O)CCNC12CC3CC(CC(C3)C1)C2` (stereo not drawn) gave a GI50 of 3.37 µM and a TGI of 13.3 µM.
`CCOC(=O)C1=C(N)Oc2c(sc3c(C)cccc23)C1c1ccc(F)cc1` (stereo not drawn) was tested, and the GI50 was 0.399 µM and the TGI was 13.5 µM.
Compound `O=C1/C(=C/N2N=C(c3ccc4ccccc4c3)CC2c2ccccc2O)SC(=S)N1c1cccnc1` (stereo not drawn) has a GI50 of 4.06 µM and a TGI of over 100 µM.
For `NC(N)=N/N=C(\N=Nc1ccccc1)c1ccc(Cl)cc1`, the GI50 was 1.13 µM and the TGI was 4.35 µM.
`c1ccc2c(c1)c1ccccc1c1ccccc21` gave a GI50 of over 100 µM and a TGI of over 100 µM.
With `Cc1c2c(C(N)=O)nccc2c(C)c2c1c1ccccc1n2Cc1ccccc1` the TGI was over 100 µM.
Work on `NC(=O)CNc1ccc([As]=[As]c2ccc(NCC(N)=O)cc2)cc1` (stereo not drawn) yielded a GI50 of 4.2 µM and a TGI of 18.2 µM.
